Reference: patent US6649628B1, “N-[2-hydroxy-3-(1-piperidinyl)propoxy]pyridine-1-oxide-3-carboximidoyl chloride and its use in the treatment of insulin resistance” (Biorex Kutato es Fejleszto RT, priority 1999, dated 2003)
Read-outs that look alike come from different tables or passages of the source.

Columns and labels:
[1] = tested on: high fat (HF) diet insulin resistant male Wistar rats; test: Experiment 8: in vivo insulin-dependent glucose uptake (euglycaemic glucose clamp) in dietary induced insulin resistance; details: for effect on fasting blood glucose levels: 20 mg/kg daily, 3 weeks; for in vivo insulin mediated glucose uptake (glucose infusion rate, GIR): 20 mg/kg/day for 3 weeks, euglycaemic glucose clamp, insulin infusion 6.4 mU/kg/min
Description: Male Wistar rats (Charles River Laboratories Inc.) with an initial body weight of 300-350 g were used in the experiments.
Insulin resistance was induced by dietary manipulation: animals were given a high fat (HF) diet for 3 weeks. In the HF diet the proportion of saturated fats were dominant and gave 70% of total daily caloric intake.
Briefly: the fasting blood glucose concentration in different animal groups must be identical. Experiments were carried out in conscious, freely moving, chronicly canulated rats: first an insulin infusion (6.4 mU/kg/min) was started, followed by a parallel-run continuous glucose infusion to maintain blood glucose concentrations in the euglycaemic range. After stabilisation the quantity of infused glucose was measured for a 90 min. period (glucose infusion rate=GIR, mg/kg/min) which is the quantitative parameter of insulin sensitivity.

[2] = tested on: STZ-diabetic rats; details: 2 month; for Scores lenticular + retinal improvement % / Scores lenticular + retinal mean ± SE / Scores retinal improvement % / Scores retinal mean ± SE: 5 mg/kg daily; for effect on lenticular and retinal pathologic histological alterations / effect on retinal histological alterations only: Compound-A 10 mg/kg, enantiomers 5 mg/kg daily
Description: After anesthesia (Calypsovet, 125 mg/kg. Ip., Richter Rt., Hungary), the eyes were enucleated and fixed in 4% formaldehyde dissolved in a phosphate buffer (pH:7.4).
Afterwards, they were embedded in paraffin (Medim DDM P800, embedding center: Lignifer L-120-92-014, stainer: Shandon Eliott, Microtome: is Leica SM 2000 R, Microscope: Jenaval Karl Zeiss Jena). Several 6 micron sections of the eyes were prepared, and hematoxilyn/eosine (Fluka) and PAS (periodic acid-Schiff, Fluka) staining were used. The light-microscopic evaluation was performed at a magnification of 40× and 100×. Photographs and slide positives were prepared of representative samples.
The histological evaluation was performed on coded samples, the group division was unknown for the examiner. Pathological deviations of the retina were graded on a scale of 0-20, while those of the lens on a scale of 0-3.
The statistical calculations were done with the Statistica 4.5 (SatSoft, USA) program. The given value for negative cases was 0.1. A Box and Whisker plot graph was also prepared.
For each group in the experiment, the mean±SE (Standard Error) values were calculated, and the comparison was done with the help of a non-parametric Mann-Whitney U-test (Graphpad Instat, San Diego, Calif.).

[3] = tested on: STZ-diabetic Wistar rats; test: Experiment 6: Compound-A and enantiomers, nerve conduction velocity after 1 month treatment; details: for MNCV / MNCV improvement / SNCV / SNCV improvement: 5 mg/kg daily, 1 month; for effect on motor (MNCV) and sensory (SNCV) nerve conduction velocity deficits: Compound-A 10 mg/kg, enantiomers 5 mg/kg daily
Description: In the experiments, male Wistar rats were used (Charles River Laboratories Inc.). At the start of the experiment, their weights were 340-370 g. Diabetes was induced by the intravenous administration of a single 45 mg/kg dose of streptozotocine (STZ, Sigma, St. Louis, Mo.) dissolved in physiological saline solution. The development of diabetes was checked after 1 day by a blood glucose test, accepting a value over 15 mmol/l.
The test and reference substances were administered p.os to the animals once a day.
For the determination of nerve conduction velocity (NCV), the method of Stanley, modified by De Konig and Gispen was used. The animals were anesthetized by the simultaneous administration of Hyponorm (1 mg/kg ip., Janssen, Tilburg, Denmark), fluanisone (10 mg/ml), and phentanyl citrate (0.2 mg/ml). Afterwards, the left ischiadicus and tibial nerves were stimulated at standard points. Supramaximal stimulus (square impulse, 0.03 ms) was used with a platinum needle electrode, through a Nihon-Kohden (model SEN-1104, Japan) stimulator. The electromyogram (EMG) transferred from the sole muscles and intensified by a myograph (Elema-Schonander, Stockholm, Sweden) was analyzed further by the Matlab for Windows (Mathwork Inc, UK) program. The extent of NCV damage caused by diabetes was expressed in m/s. The effectiveness of the treatment was compared to this in terms of percentage (%). The statistical calculations were done by unpaired t-test or single-criterion ANOVA test (along with the Newman-Keuls post hoc test).

[4] = tested on: STZ-diabetic Wistar rats
Description: The experiments were accomplished on Wistar rats with a body weight of 320-350 g. Diabetes was induced and checked as described in Experiment 2. In the test animals having been diabetic for 3 weeks the left nervus ischidiacus was injured by freezing and the right side one was used as non-injured control. The regeneration was observed by monitoring the signals of the flexor reflex provoked by irritation of the sole that is areas under curve (AUC) of the electromyogram transferred from the forward tibial muscle. For the stimulation and detection the system described in Experiment 2 was used. Single daily doses of 10 mg/kg of Compound-A and 5 mg/kg of A(+) enantiomer were administred for 5 weeks after the injury by freezing.

[5] = tested on: STZ-diabetic Wistar rats; test: Experiment 5: urinary protein loss caused by diabetic nephropathy after 1-month treatment; format: in vivo, rat
Description: For the 24-hour period of urine collection, the animals were placed in individual metabolic cages. During this period they were given water ad libitum but no food. The latter measure was necessary to prevent possible contamination by the protein content of the food. Urine was collected in calibrated glass containers, in which Thymol crystal (Reanal 3135-1-08-38) was placed to prevent bacterial contamination.
Before measurement, the urine samples were centrifuged (2500 rpm) and filtered through a paper filter (Whatmann 1). If necessary, they were stored at −20° C. until measurement.
The total protein content of the urine was determined by the Bradford staining method (Sigma B-6916, St. Louis, Mo.), and color intensity was detected by spectrophotometry (Hitachi-U-3200).

[6] = tested on: Zucker Diabetic Fatty (ZDF) rats; details: for Fed serum glucose concentrations: 2 × 20 mg/kg/day
Description: A genetically diabetic animal model was selected and the Zucker Diabetic Fatty (ZDF) rats were used in the experiments. This model is the diabetic variant of the insulin resistant, obese but non-diabetic Zucker fa/fa animal model (see Experiment 1). In the ZDF rats diabetes developed at the age of 6-8 weeks preceded by an insulin resistant phase.
The effect of (A+) enantiomer was investigated in a treatment with a dose of 2×20 mg/kg/day started in the non-diabetic phase, at the age of 7 weeks and continued for 6 weeks.
Clinical chemistry parameters were measured by standard methods. The serum insulin concentrations were measured by a recently developed method (ELISA method, DRG lnternational,Inc., U.S.A.).

SMILES	effect on fasting blood glucose levels [1]	in vivo insulin mediated glucose uptake (glucose infusion rate, GIR) [1] [mg/kg/min]	Scores lenticular + retinal improvement % [2] [%]	Scores lenticular + retinal mean ± SE [2]	Scores retinal improvement % [2] [%]	Scores retinal mean ± SE [2]	effect on lenticular and retinal pathologic histological alterations [2]	effect on retinal histological alterations only [2]	MNCV [3] [m/s]	MNCV improvement [3] [%]	SNCV [3] [m/s]	SNCV improvement [3] [%]	effect on motor (MNCV) and sensory (SNCV) nerve conduction velocity deficits [3]	also measured
O=C(O)/C=C\C(=O)O.[O-][n+]1cccc(C(Cl)=NOC[C@@H](O)CN2CCCCC2)c1 [A(−), (−)-/S/-N-[2-hydroxy-3-(1-piperidinyl)-propoxy]-pyridine-1-oxide-3-carboximidoyl chloride (Z)-2-butenedioate (1:1)]	did not affect	19.7 ± 1.38	10.3	6.02 ± 1.09	21.7	3.53 ± 1.07	not effective	not significant	53.1 ± 0.7	39.4	54.1 ± 0.9	34.9	did not have significant improving effect	
O=C(O)/C=C\C(=O)O.[O-][n+]1cccc(C(Cl)=NOC[C@H](O)CN2CCCCC2)c1 [A(+), (+)-/R/-N-[2-hydroxy-3-(1-piperidinyl)-propoxy]-pyridine-1-oxide-3-carboximidoyl chloride (Z)-2-butenedioate (1:1)]	did not affect	20.5 ± 0.89	42.9	4.05 ± 0.80	68.9	1.68 ± 0.63	significantly improved	effective	56.1 ± 0.5	71.3	59.7 ± 0.5	68.5	significantly improved	neuroregeneration of the non-freezed nerves ([4]; 5 mg/kg daily for 5 weeks): 83%; neuroregenerative effect ([4]; 5 mg/kg daily for 5 weeks): strong neuroregenerative effect; extent of neuroregeneration of the nerve injured by freezing ([4]; 5 mg/kg daily for 5 weeks after injury, 5. week, untreated 63%): 93%; 24-hour Urinary Protein Loss Mean ± SE ([5]; 5 mg/kg daily, 1 month, series 2): 5.61 ± 1.08 mg/24 h; effect on STZ-diabetes-induced urinary protein loss ([5]; Bimoclomol 20 mg/kg, Compound-A 10 mg/kg, (+) enantiomer 5 mg/kg daily): significantly reduced; antidiabetic activity in diabetic animals ([6]; 2×20 mg/kg/day): strong antidiabetic activity; normalization of blood glucose concentrations ([6]; 2×20 mg/kg/day): did not normalize; Fed serum glucose concentrations ([6]; 3 weeks): 10.82 ± 1.36 mmol/L; Fed serum glucose concentrations ([6]; 5 weeks): 13.25 ± 0.76 mmol/L
